According to ChEMBL document CHEMBL1201862, “PubChem BioAssay data set” (2004):
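Compound exposure: 48 hours, 5 concentrations, 96-well plates. GI50 is the concentration that inhibits growth by half.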 Active and inactive are the calls of the source. Rule as the data show it: active = GI50 up to about 1.1 µM and inactive = higher.

Columns and labels:
Test in all cases: NCI-60 cell line screen, 48 h
SF-539 = test system: SF-539
CCRF-CEM = test system: CCRF-CEM
CAKI-1 = test system: CAKI-1
HCT-15 = test system: HCT-15
DLD-1 = test system: DLD-1
Malme-3M = test system: Malme-3M
HOP-62 = test system: HOP-62
A549 = test system: A549
COLO 205 = test system: COLO 205
HOP-92 = test system: HOP-92
SNB-19 = test system: SNB-19
RXF 393 = test system: RXF 393
SF-268 = test system: SF-268
BT-549 = test system: BT-549
SW-620 = test system: SW-620
NCI-H460 = test system: NCI-H460
K562 = test system: K562
HCC 2998 = test system: HCC 2998
SK-MEL-5 = test system: SK-MEL-5
T47D = test system: T47D

O=C1C=C(c2c(O)ccc3ccccc23)c2ccccc2C1=O
GI50 (SF-539): 2.09 µM (inactive)
GI50 (CCRF-CEM): 1.86 µM (inactive)
GI50 (CAKI-1): 7.93 µM (inactive)
GI50 (HCT-15): 3.57 µM
GI50 (DLD-1): 3.76 µM (inactive)
GI50 (Malme-3M): 5.2 µM (inactive)
GI50 (HOP-62): 13 µM (inactive)
GI50 (A549): 5.86 µM (inactive)
GI50 (COLO 205): 6.76 µM (inactive)
GI50 (HOP-92): 2.22 µM (inactive)
GI50 (SNB-19): 5.96 µM (inactive)
GI50 (RXF 393): 2.06 µM (inactive)
GI50 (SF-268): 6.12 µM (inactive)
GI50 (BT-549): 2.48 µM (inactive)
GI50 (SW-620): 2.09 µM (inactive)
GI50 (NCI-H460): 6.32 µM (inactive)
GI50 (K562): 3.08 µM (inactive)
GI50 (HCC 2998): 11.7 µM (inactive)
GI50 (SK-MEL-5): 2.51 µM (inactive)

CCCN1C(=O)/C(=C(/O)C(=O)OCC)C(c2ccc(OC)c(OC)c2)C1=O (stereo unspecified)
GI50 (SF-539): > 100 µM (inactive)
GI50 (CCRF-CEM): > 100 µM (inactive)
GI50 (CAKI-1): > 100 µM (inactive)
GI50 (HCT-15): > 100 µM
GI50 (DLD-1): > 100 µM (inactive)
GI50 (Malme-3M): > 100 µM (inactive)
GI50 (HOP-62): > 100 µM (inactive)
GI50 (A549): > 100 µM (inactive)
GI50 (COLO 205): > 100 µM (inactive)
GI50 (HOP-92): > 100 µM (inactive)
GI50 (SNB-19): > 100 µM (inactive)
GI50 (RXF 393): > 100 µM (inactive)
GI50 (SF-268): > 100 µM (inactive)
GI50 (SW-620): > 100 µM (inactive)
GI50 (NCI-H460): > 31.6 µM (inactive)
GI50 (K562): > 100 µM (inactive)
GI50 (HCC 2998): > 100 µM (inactive)
GI50 (SK-MEL-5): > 100 µM (inactive)

CCOC(=O)C1=C(O)C(=O)c2ccccc2C1=O
GI50 (SF-539): > 100 µM (inactive)
GI50 (CCRF-CEM): > 100 µM (inactive)
GI50 (CAKI-1): > 100 µM (inactive)
GI50 (HCT-15): > 100 µM
GI50 (DLD-1): > 100 µM (inactive)
GI50 (Malme-3M): 50.6 µM (inactive)
GI50 (HOP-62): > 100 µM (inactive)
GI50 (A549): > 100 µM (inactive)
GI50 (COLO 205): > 100 µM (inactive)
GI50 (HOP-92): > 100 µM (inactive)
GI50 (SNB-19): 40.9 µM (inactive)
GI50 (RXF 393): > 100 µM (inactive)
GI50 (SF-268): > 100 µM (inactive)
GI50 (SW-620): > 100 µM (inactive)
GI50 (NCI-H460): > 100 µM (inactive)
GI50 (K562): > 100 µM (inactive)
GI50 (HCC 2998): > 100 µM (inactive)
GI50 (SK-MEL-5): 46.5 µM (inactive)

COC(=O)/C(=N\Nc1nnc(C)n1N)C(C#N)c1ccccc1 (stereo unspecified)
GI50 (SF-539): 64.1 µM (inactive)
GI50 (CCRF-CEM): > 100 µM (inactive)
GI50 (CAKI-1): > 100 µM (inactive)
GI50 (T47D): > 100 µM (inactive)
GI50 (HCT-15): 56.5 µM
GI50 (DLD-1): 31.1 µM (inactive)
GI50 (Malme-3M): 22.3 µM (inactive)
GI50 (HOP-62): > 100 µM (inactive)
GI50 (A549): > 92.7 µM (inactive)
GI50 (COLO 205): > 63.2 µM (inactive)
GI50 (HOP-92): > 100 µM (inactive)
GI50 (SNB-19): > 100 µM (inactive)
GI50 (RXF 393): > 100 µM (inactive)
GI50 (SF-268): > 100 µM (inactive)
GI50 (BT-549): > 100 µM (inactive)
GI50 (SW-620): > 86.5 µM (inactive)
GI50 (NCI-H460): > 100 µM (inactive)
GI50 (K562): > 100 µM (inactive)
GI50 (HCC 2998): > 100 µM (inactive)
GI50 (SK-MEL-5): 92.3 µM (inactive)

CC1=NCCc2cc3[nH]c4ccccc4c3cc21
GI50 (SF-539): 12.6 µM (inactive)
GI50 (CCRF-CEM): 12.5 µM (inactive)
GI50 (CAKI-1): 5.32 µM (inactive)
GI50 (HCT-15): 21.7 µM
GI50 (DLD-1): 19.2 µM (inactive)
GI50 (Malme-3M): 10.7 µM (inactive)
GI50 (HOP-62): 49.3 µM (inactive)
GI50 (A549): 33.2 µM (inactive)
GI50 (COLO 205): 9.91 µM (inactive)
GI50 (HOP-92): 0.897 µM (active)
GI50 (SNB-19): 49.1 µM (inactive)
GI50 (RXF 393): 6.4 µM (inactive)
GI50 (SF-268): 22.1 µM (inactive)
GI50 (SW-620): 15.7 µM (inactive)
GI50 (NCI-H460): 13.3 µM (inactive)
GI50 (K562): 9.79 µM (inactive)
GI50 (HCC 2998): 24 µM (inactive)
GI50 (SK-MEL-5): 11.8 µM (inactive)

Cc1cccc(C)c1N1C(=O)C(=O)C(c2nc3ccccc3s2)/C(=N/NC(=O)c2ccccc2O)C1=O (stereo unspecified)
GI50 (SF-539): 6.87 µM (inactive)
GI50 (CCRF-CEM): 4.8 µM (inactive)
GI50 (CAKI-1): 3.07 µM (inactive)
GI50 (HCT-15): 14.7 µM
GI50 (DLD-1): 22.8 µM (inactive)
GI50 (Malme-3M): 33 µM (inactive)
GI50 (HOP-62): 9.18 µM (inactive)
GI50 (A549): 11.7 µM (inactive)
GI50 (COLO 205): 27.4 µM (inactive)
GI50 (HOP-92): 15.7 µM (inactive)
GI50 (SNB-19): 10.7 µM (inactive)
GI50 (RXF 393): 3.09 µM (inactive)
GI50 (SF-268): 6.75 µM (inactive)
GI50 (SW-620): 22.4 µM (inactive)
GI50 (NCI-H460): 17.7 µM (inactive)
GI50 (K562): 3.8 µM (inactive)
GI50 (HCC 2998): 24.6 µM (inactive)
GI50 (SK-MEL-5): 16.2 µM (inactive)

C/C=C1\C[C@@H]2C(OC)Nc3cc(O)c(OC)cc3C(=O)N2C1 (stereo partly specified)
GI50 (SF-539): < 0.01 µM (active)
GI50 (CCRF-CEM): < 0.01 µM (active)
GI50 (CAKI-1): < 0.01 µM (active)
GI50 (T47D): 0.0141 µM (active)
GI50 (HCT-15): < 0.01 µM
GI50 (DLD-1): 0.00319 µM (active)
GI50 (Malme-3M): < 0.01 µM (active)
GI50 (HOP-62): < 0.01 µM (active)
GI50 (A549): < 0.01 µM (active)
GI50 (COLO 205): 0.00692 µM (active)
GI50 (HOP-92): < 0.01 µM (active)
GI50 (SNB-19): 0.0074 µM (active)
GI50 (RXF 393): < 0.01 µM (active)
GI50 (SF-268): < 0.01 µM (active)
GI50 (BT-549): 0.00437 µM (active)
GI50 (SW-620): < 0.01 µM (active)
GI50 (NCI-H460): < 0.01 µM (active)
GI50 (K562): < 0.01 µM (active)
GI50 (HCC 2998): 0.0158 µM (active)
GI50 (SK-MEL-5): < 0.01 µM (active)
